Reference: patent publication US11414381B2, “Fluorinated imide salt compound and surfactant” (Mitsubishi Materials Electronic Chemicals Co., Ltd., priority 2018, dated 2022)
One block for each compound: values may come before it.

Assays:
[1] = Surface activity: surface tension of aqueous solution, Wilhelmy method; type: physicochemical
Description: (§1) Each of the compounds was mixed with water so that an aqueous solution having a concentration of 1,000 ppm by mass was prepared. By measuring the surface tension of the prepared aqueous solution, the surface activity was evaluated. The surface tension was measured by the Wilhelmy method using an automatic surface tensiometer CBVP-Z manufactured by Kyowa Interface Science Co., LTD. […] Therefore, in Comparative Example 2, the surface tension was measured in the saturated state.

[2] = Stability in water: decomposition rate from 19F-NMR before and after storage; type: physicochemical; conditions: stored 20 days at 20° C. to 25° C.
Description: (§2) Each of the compounds was mixed with water so that an aqueous solution having a concentration of 10% by mass was prepared. The prepared aqueous solution was stored for 20 days in a room adjusted to 20° C. to 25° C. By calculating a decomposition rate of the compound from ^19F—NMR spectra of the compound in the aqueous solution that were obtained before and after the storage, the stability in water was evaluated. The decomposition rate was calculated by the following formula. A compound having a decomposition rate of 3% or less was described as “No decomposition”. […] Therefore, in Comparative Example 2, the stability in water was evaluated in the saturated state. Decomposition rate (%)={1-(integration value of ^19F—NMR spectrum after storage/integration value of ^19F—NMR spectrum before storage)}×100

[3] = Surface tension-reducing ability, background comparison with PFOA / PFOS; type: physicochemical; conditions: study conducted by the inventors
[4] = according to Japanese Patent No. 4080998; cited from earlier work
[5] = Dissolution in water when preparing the aqueous test solutions; type: physicochemical
Description: as §1, §2

Surface tension ([1]; aqueous solution, concentration 1,000 ppm by mass): 43 mN/m
Compound: O=S(=O)([N-]S(=O)(=O)C(F)(F)C(F)(F)C(F)(F)C(F)(F)F)C(F)(F)C(F)(F)C(F)(F)C(F)(F)F.[K+] [Comparative Example 1, bis(perfluorobutanesulfonyl)imide potassium salt]
Stability in water ([2]; 10% by mass aqueous solution): No decomposition (A compound having a decomposition rate of 3% or less was described as “No decomposition”)

Surface tension-reducing ability compared to PFOS [3]: lower than that of PFOS
Compound: N.O=S(=O)(NS(=O)(=O)C(F)(F)C(F)(F)C(F)(F)C(F)(F)F)C(F)(F)C(F)(F)C(F)(F)C(F)(F)F [ammonium bis(perfluorobutanesulfonyl)imide]
Ability to reduce surface tension compared to ammonium salt of PFOA [4]: more able to reduce surface tension than the ammonium salt of perfluorooctanoic acid (PFOA)

Compound: O=S(=O)([O-])C(F)(F)C(F)(F)C(F)(F)C(F)(F)C(F)(F)C(F)(F)C(F)(F)C(F)(F)F.[K+] [Comparative Example 2, potassium salt of perfluorooctanesulfonic acid (PFOS)]
Dissolution in water ([5]; mixed with water for 10% by mass): formed a saturated aqueous solution without being completely dissolved in water | Dissolution in water ([5]; mixed with water for 1,000 ppm by mass): formed a saturated aqueous solution without being completely dissolved in water | Surface tension ([1]; saturated aqueous solution (not completely dissolved)): 41 (saturated) mN/m | Stability in water ([2]; saturated aqueous solution): No decomposition (A compound having a decomposition rate of 3% or less was described as “No decomposition”)
